Measured values as given in US9956426B2, “Upconverting nanoparticles” (priority 2015, dated 2018).
Read-outs that look alike come from different tables or passages of the source.

Assays:
HeLa cells [1] = settings: 100 μg/mL
Description: As a model to examine the efficacy of 5-aminolevulinic acid-conjugated upconverting particles as described herein, particles prepared as described herein (having an 80 mol % Yb content), a 3-(4,5-dimethylthiazol-2-yl)-2,5-diphenyltetrazolium bromide (MTT) proliferation assay was conducted to determine inhibition of cell proliferation using photodynamic therapy with the nanoparticles prepared as described herein. In the cell proliferation assay, HeLa cells were exposed to 5-aminolevulinic acid-conjugated upconverting particles and various controls (all 100 μg/mL) for 4 h and the cells were then irradiated by irradiation of continuous wave 980 nm light at 1 W/cm^2. The results of the assay are shown in FIG. 8, which depicts cell viability as a function of irradiation time.
Then, impact of the lanthanide-doped upconverting nanoparticles on 5-ALA-induced photodynamic therapy was evaluated. […] Cells exposed to these control nanoparticles were irradiated at a biocompatible low power density of 0.35 W/cm^2.
A 96-well microtiter plate seeded with 1×10^4 HeLa cells/well was incubated overnight at 37° C. with 5% CO2. Cells were subsequently exposed to (i) 5-aminolevulinic acid functionalized upconverting nanoparticles comprising 80 mol % ytterbium (ALA-UCNPs, 100 μg/mL), (ii) hydrazide functionalized upconverting nanoparticles (no 5-ALA) (Hyd-UCNPs, 100 μg/mL), (iii) free 5-aminolevulinic acid (ALA, 100 μg/mL) or (iv) PBS (growth medium control) and then irradiated with CW 980 nm laser diode at 1 W/cm^2 for 0, 5, 10, or 20 min. After overnight incubation, cells were labeled with 12 mM solution of MTT in PBS for 4 h. Finally, the media was aspirated and replaced with 50 μL DMSO and cell viability was quantified by formazan absorption determined by a plate reader at 540 nm.
FIG. 8: Plots showing the viability of HeLa cells irradiated with CW 980 nm light at 1 W/cm^2 power density.
FIG. 9: Plots showing the viability of HeLa cells irradiated with CW 980 nm light at 0.35 W/cm^2 power density. […]

[2] = Body mass change of mice in in vivo PDT treatment groups; design: species or system Balb/c mice; settings: control and treatment groups, after 14 days
Description: (§1) An optical fiber-coupled 980 nm high power laser diode (Hi-Tech Optoelectronics Co., Ltd. Beijing, China) was used to irradiate tumors at a power density of about 0.5 W/cm^2 for 40 min. (1 min. interval after each minute of irradiation). The tumor sizes were measured by a caliper every other day and calculated as the volume (tumor length)×(tumor width)^2/2. The body weight of mice was also measured with every tumor measurement and percent change was calculated by the formula (observed body weight)/(body weight on day 0)×100%.
FIG. 15 is a plot of body mass change of mice in in vivo PDT treatment groups with UCNP and light exposure after 14 days. […]

HeLa cells [3] = experiment: Simulated deep-tissue photodynamic therapy, MTT assay with pork tissue between laser and cells; type: cell-based; settings: 100 μg/mL; for cell viability: CW 980 nm 1 W/cm^2, 20 min
Description: Photodynamic therapy of a deep-set tumor condition using the 5-aminolevulinic acid conjugated upconverting nanoparticles with an 80% ytterbium ratio was simulated by placing pieces of pork tissue of varying thickness (representing a patient's flesh) between a near infra-red laser and HeLa cells exposed to the upconverting nanoparticles, as shown in FIG. 12(a). The cells were analyzed for cell viability using an MTT assay. After 20 min. of irradiation at 1 W/cm^2, for all pork thicknesses, the cells exposed the 5-aminolevulinic acid conjugated nanoparticles as disclosed herein had cell viabilities that were reduced significant to the control hydrazide-functionalized upconverting nanoparticles (Hyd-UCNPs). In the absence of pork (0 mm), cell viability was less than 20%, in the presence of 6 mm pork, cell viability was less than 50%, and even with 12 mm pork, cell viability was still reduced to below 80% compared to the control. This establishes and validates the feasibility of using upconverting nanoparticles as a near infra-red-to-red transducer for prodrug photodynamic therapy at a deep-tissue level (up to about 1 cm or greater).
Finally, the red-emitting upconverting nanoparticle system containing an ytterbium ratio of 80% was compared with the known upconverting nanoparticle β/β core/shell red-emitting nanoparticles at a deep tissue level with a biocompatible low power density 0.35 W/cm^2 for laser irradiation. […] The 5-aminolevulinic acid conjugated nanoparticles described herein having an ytterbium ratio of 80% achieved 40% cell death even through 1.2 cm of pork. The ability of the presently-disclosed lanthanide-doped upconverting nanoparticles' to induce significant phototherapeutic effect with such low power excitation yet thick superficial tissue makes it a major step forward in photodynamic therapy materials.
FIGS. 12(a) and 12(b): FIG. 12(a) Photograph of the setup for simulated photodynamic therapy using an in vitro MTT assay. FIG. 12(b): Plots of HeLa cell viability for cells covered with 0, 6, and 12 mm pork tissue on top of the cells and irradiated with CW 980 nm light at a 1 W/cm^2 power density for 20 min.
FIG. 13: Plots of HeLa cell viability for cells covered with 0, 6, and 12 mm pork tissue on top of the cells and irradiated with CW 980 nm light at a 0.35 W/cm^2 power density for 20 min.

[4] = 5-Aminolevulinic acid loading determination by HPLC; type: physicochemical; settings: HPLC of supernatants, back-calculation
Text: FT-IR spectral analysis confirmed that the conjugation of 5-ALA to the nanoparticles was via a hydrazone linkage as shown in panels (d) and (e) of FIG. 7, which show (d) full and (e) detailed spectra for polyacrylic acid-coated upconverting nanoparticles, (PAA-UCNPs), hydrazide-functionalized upconverting nanoparticles (Hyd-UCNPs) and 5-ALA-conjugated upconverting nanoparticles. On the spectrum for Poly(acrylic) acid-functionalized UCNPs (PAA-UCNPs), the peak at 1636 cm^−1 is attributed to the resonance of the carboxyl groups. […]
FT-IR spectra were recorded on a Nicolet Nexus FT-IR spectrometer, using the SMART iTR™ for ATR measurements. The upconversion photoluminescence spectra were measured by a SPEX FluoroMax®-3 spectrofluorimeter (Horiba) (spectral resolution of 1 nm, emission slit of 5 nm, and integral period of 0.1 s) excited at 980 nm using a fiber-coupled laser diode introduced to the sample chamber of the spectrofluorimeter. […] The size distribution of the samples was determined by dynamic light scattering (DLS) equipped with a Zetasizer Nano-ZS (He—Ne laser wavelength at 633 nm) and an auto-titrator (Malvern Instruments, Malvern, UK). The absorbance for the MTT experiment and the fluorescence for DCFDA staining experiment was found using a microplate reader (Molecular Devices Co., Menlo Park, Calif.). […]

[5] = tested on: singlet oxygen production in HeLa cells; experiment: Singlet oxygen detection by DCFDA fluorescence (imaging and plate reader); type: cell-based; settings: 100 μg/mL, CW 980 nm 1 W/cm^2, 0, 5, 10 min irradiation
Text: To investigate the mechanism of the results from the above mentioned experiments, cells were stained with 2′,7′-dichlorofluorescein diacetate (DCFDA), a fluorescent indicator for singlet oxygen generation, and imaged using fluorescence microscopy. When DCFDA diffuses into the cell it is […] into a non-fluorescent compound by cellular esterases. Reactive oxygen species (ROS) oxidize the non-fluorescent compound to 2′, 7′-dichlorofluorescein (DCF), which has bright green fluorescence. […] See images (a), (b) and (c) of FIG. 10. […] See images (d), (e) and (f) of FIG. 10. The data were corroborated by quantifying the singlet oxygen production by measuring the fluorescence intensity of the DCFDA using 96-well microtiter plate reader. Both DCFDA fluorescence imaging and microtiter plate measurement indicate effective prodrug delivery and subsequent PpIX activation by the red-emitting upconverting nanoparticles provided by the present disclosure.
Glass-bottom confocal dishes seeded with 1×10^6 HeLa cells were incubated overnight at 37° C. with 5% CO2. […]
FIGS. 10(a), 10(b), 10(c), 10(d), 10(e) and 10(f). Fluorescence microscopy images showing detection of singlet oxygen production in cells by the fluorescence of DCFDA.

4T1 tumors = experiment: In vivo deep tumor photodynamic therapy treatment, tumor volume; design: species or system Balb/c mice; settings: intratumoral
Description: In vivo testing was conducted in subcutaneous tumors grown on Balb/c mice models to evaluate the effect of photodynamic therapy treatment using the upconversion nanoparticles described herein. The tumor volume reduction effect of a red light laser ranging from ˜635-685 nm (PpIX's activation region) and 980 nm light irradiation (activation wavelength of the upconverting nanoparticles described herein) was compared at a biocompatible level of 0.5 W/cm^2.
Female Balb/c mice were purchased from Nanjing Peng Sheng Biological Technology Co. Ltd. and used under protocols approved by Soochow University Laboratory Animal Center. 4T1 cells (1×10^6) suspended in 40 μL of PBS were subcutaneously injected into the back of each female Balb/c mouse. After about 6 days, the mice bearing 4T1 tumors were treated when the tumor volume reached about 50 mm^3.
as §1
FIGS. 14(a) and 14(b). FIG. 14(a): Plots of the in vivo volume of tumors exposed to various controls and ALAUCNPs with red and near-infrared irradiation (0.5 W/cm^2) in simulated deep tumors. […] Statistical significance was determined from one-way t tests; significance (*) was based on p<0.05 and p>0.05 for not significant (**) pairs. There was no statistical difference between treatments with ALA-UCNPs with no pork whether red or near infra-red light was used. […] FIG. 14(b) is a diagram of in vivo photodynamic therapy treatment with red or near infra-red light conducted inserting pork tissue between the laser and the mice tumors to simulate treatment of deep tumors.

[6] = Hydrodynamic size by dynamic light scattering; type: physicochemical; settings: dynamic light scattering in PBS
Description: Dynamic light scattering was used to determine that the hydrodynamic size of the 5-ALA-conjugated nanoparticles was about 62 nm as shown in FIG. 6.
FT-IR spectra were recorded on a Nicolet Nexus FT-IR spectrometer, using the SMART iTR™ for ATR measurements. The upconversion photoluminescence spectra were measured by a SPEX FluoroMax®-3 spectrofluorimeter (Horiba) (spectral resolution of 1 nm, emission slit of 5 nm, and integral period of 0.1 s) excited at 980 nm using a fiber-coupled laser diode introduced to the sample chamber of the spectrofluorimeter. Cells were imaged using a Nikon Eclipse TE 2000 microscope, equipped with a Nuance CCD camera capable of imaging. The light source was a fiber-coupled laser diode emitting at 980 nm, with the fiber introduced through the entrance port of the microscope. The size distribution of the samples was determined by dynamic light scattering (DLS) equipped with a Zetasizer Nano-ZS (He—Ne laser wavelength at 633 nm) and an auto-titrator (Malvern Instruments, Malvern, UK). The absorbance for the MTT experiment and the fluorescence for DCFDA staining experiment was found using a microplate reader (Molecular Devices Co., Menlo Park, Calif.). 5-ALA concentration was monitored by HPLC (Varian ProStar) for loading efficiency data.

## α-NaYF4:Yb(80%),Er(2%)@CaF2 ALA [ALA-UCNPs]
HeLa cells [1]; 4 h exposure, CW 980 nm 1 W/cm^2, 10 min irradiation
  viability of cells: about 30%
HeLa cells [1]; CW 980 nm 0.35 W/cm^2, 20 min irradiation
  cell death: more than 60%
HeLa cells [1]; CW 980 nm 1 W/cm^2, 10 min irradiation
  killing rate: ~70%
[2]
  body mass change: no significant difference across the groups
HeLa cells [3]; 6 mm pork
  cell viability: less than 50%
HeLa cells [3]; 12 mm pork, compared to the control
  cell viability: below 80%
HeLa cells [3]; absence of pork (0 mm)
  cell viability: less than 20%
HeLa cells [3]; through 1.2 cm of pork, CW 980 nm 0.35 W/cm^2, 20 min
  cell death: 40%
[4]
  loading capacity for 5-ALA: about 4.5 μmol/mg
[5]
  DCFDA fluorescence (singlet oxygen generation): intensifying DCFDA fluorescence over irradiation time
4T1 tumors; 0.5 W/cm^2
  tumor reduction, 980 nm light with 12 mm pork versus red light with 6 mm pork: significantly more effective
4T1 tumors; 0.5 W/cm^2, no pork
  tumor volume, treatment with NIR versus red light: no statistically significant difference
4T1 tumors; 980 nm 0.5 W/cm^2, 6 or 12 mm of pork tissue above the tumor
  tumor reduction: about 150 mm^3
4T1 tumors; red light irradiation 0.5 W/cm^2, pork tissue above the tumor
  therapeutic effect: no noticeable therapeutic effect
[6]
  hydrodynamic size: about 62 nm

## β-NaYF4:Yb(20%),Er(2%)@β-NaYF4 ALA [reference compound]
HeLa cells [1]; CW 980 nm 0.35 W/cm^2
  cell killing: no cell killing
[4]
  loading capacity for 5-ALA: ~4.5 µmol/mg
